Assay results: US20250154597A1, “TRANSCRIPTIONAL REPROGRAMMING DIFFERENTIATES ACTIVE FROM INACTIVE ESR1 FUSIONS IN ENDOCRINE THERAPY-REFRACTORY METASTATIC BREAST CANCER” (Baylor College of Medicine, priority 2021, published 2025)

T1: WT ERα protein (Homo sapiens, UniProt P03372)
T1 sequence (P03372 1-595): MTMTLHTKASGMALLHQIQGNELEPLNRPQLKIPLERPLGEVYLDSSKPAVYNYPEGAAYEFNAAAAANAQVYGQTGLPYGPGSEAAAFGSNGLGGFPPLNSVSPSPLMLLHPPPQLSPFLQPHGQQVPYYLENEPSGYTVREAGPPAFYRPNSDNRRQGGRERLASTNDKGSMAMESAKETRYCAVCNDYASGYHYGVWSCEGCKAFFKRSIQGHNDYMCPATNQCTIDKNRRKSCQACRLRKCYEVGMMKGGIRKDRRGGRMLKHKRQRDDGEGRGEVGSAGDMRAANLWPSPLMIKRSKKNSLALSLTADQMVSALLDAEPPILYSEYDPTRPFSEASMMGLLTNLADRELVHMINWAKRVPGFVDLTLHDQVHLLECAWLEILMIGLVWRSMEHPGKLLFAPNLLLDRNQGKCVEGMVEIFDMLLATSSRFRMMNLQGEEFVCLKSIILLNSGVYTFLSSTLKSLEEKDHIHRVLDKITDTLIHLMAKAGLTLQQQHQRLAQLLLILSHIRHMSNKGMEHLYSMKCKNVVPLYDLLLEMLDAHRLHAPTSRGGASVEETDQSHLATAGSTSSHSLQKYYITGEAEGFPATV

T2: ESR1-e6>PCDH11X fusion protein, C-terminal HA-tagged (UniProt P03372 1-365; Q9BZA7 1013-1347, limits assumed)
T2 construct: Stably expressed in T47D cells by lentiviral transduction; not shown: C-terminal HA tag
T2 sequence (looked up): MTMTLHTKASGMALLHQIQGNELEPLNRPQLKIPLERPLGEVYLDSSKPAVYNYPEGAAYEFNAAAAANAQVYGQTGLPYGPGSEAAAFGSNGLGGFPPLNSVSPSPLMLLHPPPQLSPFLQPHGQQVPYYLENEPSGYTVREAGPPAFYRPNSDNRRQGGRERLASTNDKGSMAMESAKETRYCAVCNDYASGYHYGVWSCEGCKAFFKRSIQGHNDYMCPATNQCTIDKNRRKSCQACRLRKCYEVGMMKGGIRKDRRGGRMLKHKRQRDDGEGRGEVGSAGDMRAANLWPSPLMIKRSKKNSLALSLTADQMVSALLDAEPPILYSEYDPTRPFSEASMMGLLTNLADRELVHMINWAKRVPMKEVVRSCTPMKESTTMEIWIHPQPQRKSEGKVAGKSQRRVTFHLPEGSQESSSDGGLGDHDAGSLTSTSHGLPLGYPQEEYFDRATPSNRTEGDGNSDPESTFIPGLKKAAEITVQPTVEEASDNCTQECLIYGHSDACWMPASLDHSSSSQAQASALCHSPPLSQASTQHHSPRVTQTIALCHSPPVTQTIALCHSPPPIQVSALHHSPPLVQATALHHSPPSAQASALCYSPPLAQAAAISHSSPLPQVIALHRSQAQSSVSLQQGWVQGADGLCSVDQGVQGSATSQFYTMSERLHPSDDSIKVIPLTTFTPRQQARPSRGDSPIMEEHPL

T3: ESR1-e6>SOX9 fusion protein, HA-tagged (UniProt P03372 1-365; P48436 229-509, limits assumed)
T3 construct: Stably expressed in T47D cells by lentiviral transduction; not shown: HA tag (constructed in a similar fashion to the C-terminal HA-tagged constructs)
T3 sequence (looked up): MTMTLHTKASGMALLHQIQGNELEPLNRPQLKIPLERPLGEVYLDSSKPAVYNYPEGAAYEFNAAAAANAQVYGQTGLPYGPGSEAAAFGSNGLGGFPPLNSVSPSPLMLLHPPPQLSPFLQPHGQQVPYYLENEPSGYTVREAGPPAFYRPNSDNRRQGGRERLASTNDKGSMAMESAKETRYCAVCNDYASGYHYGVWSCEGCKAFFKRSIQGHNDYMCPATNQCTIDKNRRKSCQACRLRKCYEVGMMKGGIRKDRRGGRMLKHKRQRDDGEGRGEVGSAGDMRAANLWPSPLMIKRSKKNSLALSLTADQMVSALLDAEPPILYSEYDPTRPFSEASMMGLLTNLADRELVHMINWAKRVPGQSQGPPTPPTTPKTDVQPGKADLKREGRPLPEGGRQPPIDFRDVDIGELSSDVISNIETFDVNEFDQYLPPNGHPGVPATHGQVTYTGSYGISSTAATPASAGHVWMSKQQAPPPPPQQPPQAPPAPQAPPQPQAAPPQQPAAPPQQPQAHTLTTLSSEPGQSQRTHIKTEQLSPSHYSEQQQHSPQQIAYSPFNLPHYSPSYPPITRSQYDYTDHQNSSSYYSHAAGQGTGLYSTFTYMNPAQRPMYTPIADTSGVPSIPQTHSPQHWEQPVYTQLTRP

B1: endogenously expressed ERα (wild-type estrogen receptor alpha, encoded by ESR1) (receptor, UniProt P03372 1-595, looked up)
chain: T1 sequence (P03372 1-595)
notes: also called WT ERα; endogenous ERα

Experiments:
WT ERα protein = molecular target: T1, WT ERα protein; assay: Immunoblotting of endogenous WT ERα after fulvestrant treatment; type: cell-based; conditions: 100 nM fulvestrant; hormone-deprived stable T47D and MCF7 cells
Protocol: Immunoblotting and immunoprecipitation—Cells were harvested and whole cell lysates were prepared in RIPA lysis buffer as described (7) or in MIB lysis buffer (10) supplemented with 1× protease inhibitors and 1× phosphatase inhibitors (Roche) by sonication for 2 minutes. […] Protein concentration determination and SDS-PAGE (20 g protein per lane) were performed as described (7). Immunoblotting of nitrocellulose membranes was performed as described (7). Primary and HRP-conjugated secondary antibodies employed are listed in the Supplementary information.

T47D cells = assay: Cell growth, alamarBlue assay; type: cell-based; conditions: 100 nM fulvestrant, 7-10 days
Protocol: Cell growth, motility and invasion assays—Cell growth assays of different ESR1 fusion protein expressing breast cancer cells that were first hormone-deprived and then subsequently treated either with 100 nM fulvestrant in the presence or absence of 10 nM E2 for 7-10 days were performed in 96-well plates using an alamarBlue™ assay as described (7). Cell growth reading values were normalized to that of control YFP cells, −E2.
(§1) To characterize each chimeric ESR1 fusion protein, HA-tagged cDNA constructs were expressed in two ER+ breast cancer cell lines (T47D and MCF7) by lentiviral transduction. Stable cell lines expressing yellow fluorescent protein (YFP) were generated as negative controls. Truncated ESR1 (ESR1-e6 protein) and wild-type ESR1 (ESR1-WT protein) were also stably expressed to provide over-expression controls (FIGS. 2A and 2D). When cells were treated with 100 nM fulvestrant, a selective ERα degrader that inhibits endogenous ERα (21), the level of ESR1 fusion protein was predictably unaffected. In comparison, the WT ERα protein was reliably degraded, providing an endogenous control for fulvestrant activity (FIGS. 2A and 2D). […] Cell growth was measured using an alamarBlue assay. […]

ESR1 fusion protein = assay: Immunoblotting of ESR1 fusion proteins after fulvestrant treatment; type: cell-based; conditions: 100 nM fulvestrant; hormone-deprived stable T47D and MCF7 cells
Protocol: (§2) Immunoblotting and immunoprecipitation—Cells were harvested and whole cell lysates were prepared in RIPA lysis buffer as described (7) or in MIB lysis buffer (10) supplemented with 1× protease inhibitors and 1× phosphatase inhibitors (Roche) by sonication for 2 minutes. To make ER+ PDX tumor lysates, frozen PDX tumors were cryopulverized with a Covaris CP02 Pulverizer and then protein was extracted in MIB lysis buffer with sonication. Protein concentration determination and SDS-PAGE ([…] protein per lane) were performed as described (7). Immunoblotting of nitrocellulose membranes was performed as described (7). Primary and HRP-conjugated secondary antibodies employed are listed in the Supplementary information.
as §1, with “unaffected.” for “unaffected. In comparison, the WT ERα protein was reliably degraded, providing an endogenous control for fulvestrant activity (FIGS. 2A and 2D).”

[1] = system: T47D cells expressing active ESR1 fusion proteins; assay: Expression of estrogen response and EMT-related genes (RT-qPCR, immunoblotting); type: cell-based; conditions: 100 nM fulvestrant; E2-deprived T47D cells
Protocol: as §2
Reverse transcription-quantitative PCR (RT-qPCR)—RNA was isolated from hormone-deprived stable T47D cells as above with concentration determined using a NanoDrop spectrophotometer. […]
To define the transcriptional profile driven by active ESR1 fusion proteins, RNA-Seq was performed on T47D cells expressing these ESR1 fusion cDNAs as well as control (YFP, ESR1-e6, and ESR1-WT) cells in the presence and absence of E2. […] The expression of three canonical estrogen response genes in stably transfected T47D cells were validated using reverse transcription-quantitative PCR (RT-qPCR). […]

[2] = molecular target: T2, ESR1-e6>PCDH11X fusion protein, …; assay: co-immunoprecipitation: anti-HA IP from hormone-deprived T47D cell lysates with or without 100 nM E2, blot with C-terminal ERα antibody
[3] = molecular target: T4, ESR1-e6>YAP1 fusion protein, C-terminal HA-tagged (UniProt P03372 1-365; P46937 230-504, limits assumed); assay: as above
T4 construct: Stably expressed in T47D cells by lentiviral transduction; also called ESR1-YAP1; not shown: C-terminal HA tag

[4] = molecular target: T3, ESR1-e6>SOX9 fusion protein, HA-tagged; assay: as above

Row | Molecule | level of WT ERα protein (WT ERα protein) | E2-independent growth of T47D cells expressing ESR1-e6>YAP1, >PCDH11X, >SOX9, >ARNT2-e18 (T47D cells) | level of ESR1 fusion protein (ESR1 fusion protein) | expression of estrogen response and EMT-related genes induced by active ESR1 fusion proteins [1] | binding result [2] | binding result [3] | binding result [4]
1 | C[C@]12CC[C@@H]3c4ccc(O)cc4C[C@@H](CCCCCCCCC[S+]([O-])CCCC(F)(F)C(F)(F)F)[C@H]3[C@@H]1CC[C@@H]2O (stereo partly shown) [fulvestrant] | degraded | uniformly resistant to fulvestrant | unaffected | unaffected |  |  | 
2 | B1 |  |  |  |  | no binding | no binding | no binding
